In PubChem BioAssay AID762 (NMMLSC, 2007):

molecular target: fMet-Leu-Phe receptor (Homo sapiens) (UniProt P21462); experiment: FPR1 fluorescent ligand binding inhibitors, dose response, selectivity assay for FPRL1 ligand SAR project, cell-based, flow cytometry, IC50 (AID 762); settings: FPR-expressing cells, fluorescent ligand binding competition, IC50 of ligand binding inhibition
Sequence (P21462 whole entry, looked up): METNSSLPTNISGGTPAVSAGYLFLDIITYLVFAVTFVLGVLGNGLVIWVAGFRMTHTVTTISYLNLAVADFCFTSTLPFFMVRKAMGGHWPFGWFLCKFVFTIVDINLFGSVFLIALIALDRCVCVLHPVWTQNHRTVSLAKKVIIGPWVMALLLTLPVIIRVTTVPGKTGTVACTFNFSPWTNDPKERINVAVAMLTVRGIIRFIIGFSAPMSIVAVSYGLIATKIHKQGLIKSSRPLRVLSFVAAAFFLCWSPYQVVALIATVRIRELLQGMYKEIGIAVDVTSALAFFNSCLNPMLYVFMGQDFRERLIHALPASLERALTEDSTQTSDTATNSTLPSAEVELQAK

| IC50 | SMILES |
| --- | --- |
| > 66.1 µM | COc1ccc(-c2cn3cccnc3n2)cc1NC(=O)C1CCCC1 |
| > 72.1 µM | COc1ccc(-c2cn3cccnc3n2)cc1NC(=O)C1CC1 |
| > 50.5 µM | CCOC(=O)N1CCN(c2nc(-c3ccc(OC)c(OC)c3)cc(C(F)(F)F)n2)CC1 |
| > 57.2 µM | COc1ccc(CC(=O)Nc2cc(-c3cn4cccnc4n3)ccc2OC)cc1 |
| > 41.6 µM | COc1ccc(-c2cc(C(F)(F)F)nc(N3CCN(C(c4ccccc4)c4ccccc4)CC3)n2)cc1OC |
| > 75 µM | CCC(=O)Nc1cc(-c2cn3cccnc3n2)ccc1OC |
| > 71.6 µM | COc1ccc(-c2cn3cccnc3n2)cc1NC(=O)C(C)C |
| > 57.5 µM | O=C(N1CCN(c2nc(-c3ccccc3)c3ccccc3n2)CC1)C(F)(F)F |
| > 50 µM | COc1ccc(-c2cc(C(F)(F)F)nc(N3CCN(c4ccccc4)CC3)n2)cc1OC |
| > 48.5 µM | COc1ccc(-c2cc(C(F)(F)F)nc(N3CCN(Cc4ccccc4)CC3)n2)cc1OC |
